The numbers were not newly measured in patent US10822295B2, “Menaquinol compositions and methods of treatment” (Epizon Pharma, Inc., priority 2018, dated 2020), which cites them from elsewhere.

In one data set the test system is normal blood coagulation. To be noted: compared to vitamin K1 and MK-4.
The conditions of data set [1]: compared to MK-4.
The test system of the next data set is incidence of fractures. Particulars: in vivo.

On to `CC(C)=CCC/C(C)=C/CC/C(C)=C/CC/C(C)=C/CC/C(C)=C/CC/C(C)=C/CC/C(C)=C/CC1=C(C)C(=O)c2ccccc2C1=O` [MK-7, menaquinone-7], for which the “effects on normal blood coagulation” value in the data set with normal blood coagulation was “greater and longer lasting”. Besides, the half-life in serum entry in data set [1] is listed as “long half-life”. Take `CC(C)=CCC/C(C)=C/CC/C(C)=C/CC/C(C)=C/CC1=C(C)C(=O)c2ccccc2C1=O` [MK-4, menaquinone-4]: in the data set on incidence of fractures, the incidence of fractures result is “decrease the incidence of fractures”.
